Legend:
Adenosine receptor A1 = target: T1, Adenosine receptor A1 (Homo sapiens, UniProt P30542)
T1 sequence (P30542 whole entry): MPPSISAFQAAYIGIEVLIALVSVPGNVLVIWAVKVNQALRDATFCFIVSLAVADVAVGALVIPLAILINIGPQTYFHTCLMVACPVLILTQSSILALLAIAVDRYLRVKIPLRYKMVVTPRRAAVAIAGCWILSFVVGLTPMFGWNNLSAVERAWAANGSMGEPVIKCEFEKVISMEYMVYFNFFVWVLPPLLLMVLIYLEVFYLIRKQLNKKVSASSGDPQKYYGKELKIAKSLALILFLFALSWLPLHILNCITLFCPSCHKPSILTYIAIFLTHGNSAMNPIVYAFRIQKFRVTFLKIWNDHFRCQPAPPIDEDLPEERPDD

[1] = target: T2, Alpha-2C adrenergic receptor (Homo sapiens, UniProt P18825); type: functional
T2 sequence (P18825 whole entry): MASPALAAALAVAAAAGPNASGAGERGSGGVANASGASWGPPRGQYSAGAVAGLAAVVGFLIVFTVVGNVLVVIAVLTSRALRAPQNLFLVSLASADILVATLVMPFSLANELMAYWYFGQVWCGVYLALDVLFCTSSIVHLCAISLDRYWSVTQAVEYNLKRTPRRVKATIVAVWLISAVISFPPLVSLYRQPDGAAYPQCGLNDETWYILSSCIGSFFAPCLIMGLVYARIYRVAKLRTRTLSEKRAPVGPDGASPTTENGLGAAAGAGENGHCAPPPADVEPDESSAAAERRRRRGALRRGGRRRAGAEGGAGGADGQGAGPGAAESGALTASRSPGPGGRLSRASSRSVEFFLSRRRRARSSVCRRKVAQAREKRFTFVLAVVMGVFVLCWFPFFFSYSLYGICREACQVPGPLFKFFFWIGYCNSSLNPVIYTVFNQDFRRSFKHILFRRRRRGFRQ

[2] = target: T3, Cholecystokinin receptor type A (Homo sapiens, UniProt P32238)
T3 sequence (P32238 whole entry): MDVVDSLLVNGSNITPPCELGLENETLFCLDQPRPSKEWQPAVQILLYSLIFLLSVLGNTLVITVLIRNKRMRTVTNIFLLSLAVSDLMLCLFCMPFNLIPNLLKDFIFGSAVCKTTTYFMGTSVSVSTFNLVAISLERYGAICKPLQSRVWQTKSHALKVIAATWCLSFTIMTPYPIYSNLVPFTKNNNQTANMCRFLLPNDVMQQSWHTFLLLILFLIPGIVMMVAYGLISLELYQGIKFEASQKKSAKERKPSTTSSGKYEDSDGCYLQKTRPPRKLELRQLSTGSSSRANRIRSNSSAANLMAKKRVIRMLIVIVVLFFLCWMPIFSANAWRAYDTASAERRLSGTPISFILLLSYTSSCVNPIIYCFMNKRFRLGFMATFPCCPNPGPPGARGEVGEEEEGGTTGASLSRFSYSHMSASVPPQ

[3] = target: Neuronal acetylcholine receptor subunit alpha-4 (Homo sapiens, UniProt P43681)
[4] = target: T4, 5-hydroxytryptamine receptor 1A (Homo sapiens, UniProt P08908); type: functional, cell-based
T4 sequence (P08908 whole entry): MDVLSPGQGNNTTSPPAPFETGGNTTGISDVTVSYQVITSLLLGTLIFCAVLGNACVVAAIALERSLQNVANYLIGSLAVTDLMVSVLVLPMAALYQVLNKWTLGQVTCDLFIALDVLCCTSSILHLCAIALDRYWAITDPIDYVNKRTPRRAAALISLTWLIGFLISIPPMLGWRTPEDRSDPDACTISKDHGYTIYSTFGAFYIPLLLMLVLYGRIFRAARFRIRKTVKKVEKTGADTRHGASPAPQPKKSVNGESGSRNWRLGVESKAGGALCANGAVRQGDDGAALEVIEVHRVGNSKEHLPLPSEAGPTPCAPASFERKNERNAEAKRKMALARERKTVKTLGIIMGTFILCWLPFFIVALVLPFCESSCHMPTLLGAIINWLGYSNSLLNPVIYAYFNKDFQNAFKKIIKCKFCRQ

[5] = target: Voltage-gated inwardly rectifying potassium channel KCNH2 (Homo sapiens, UniProt Q12809); type: functional; details: read-out: AC50
[6] = target: T5, Neuropeptide Y receptor type 1 (Homo sapiens, UniProt P25929)
T5 sequence (P25929 whole entry): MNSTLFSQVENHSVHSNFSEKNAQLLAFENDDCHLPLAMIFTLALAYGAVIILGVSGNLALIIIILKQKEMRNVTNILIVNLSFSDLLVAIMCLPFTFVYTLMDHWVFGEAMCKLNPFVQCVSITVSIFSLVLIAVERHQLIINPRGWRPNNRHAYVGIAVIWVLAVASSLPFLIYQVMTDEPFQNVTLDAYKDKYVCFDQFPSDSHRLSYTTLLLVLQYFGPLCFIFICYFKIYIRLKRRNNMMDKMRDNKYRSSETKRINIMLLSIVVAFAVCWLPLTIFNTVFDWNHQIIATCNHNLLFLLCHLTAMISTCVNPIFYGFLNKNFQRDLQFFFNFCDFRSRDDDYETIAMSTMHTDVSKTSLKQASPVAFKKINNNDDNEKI

Vasopressin V1a receptor = Vasopressin V1a receptor (Homo sapiens, UniProt P37288)
Further: assay procedure not described here.

Chain of Neuronal acetylcholine receptor subunit alpha-4 (P43681 whole entry): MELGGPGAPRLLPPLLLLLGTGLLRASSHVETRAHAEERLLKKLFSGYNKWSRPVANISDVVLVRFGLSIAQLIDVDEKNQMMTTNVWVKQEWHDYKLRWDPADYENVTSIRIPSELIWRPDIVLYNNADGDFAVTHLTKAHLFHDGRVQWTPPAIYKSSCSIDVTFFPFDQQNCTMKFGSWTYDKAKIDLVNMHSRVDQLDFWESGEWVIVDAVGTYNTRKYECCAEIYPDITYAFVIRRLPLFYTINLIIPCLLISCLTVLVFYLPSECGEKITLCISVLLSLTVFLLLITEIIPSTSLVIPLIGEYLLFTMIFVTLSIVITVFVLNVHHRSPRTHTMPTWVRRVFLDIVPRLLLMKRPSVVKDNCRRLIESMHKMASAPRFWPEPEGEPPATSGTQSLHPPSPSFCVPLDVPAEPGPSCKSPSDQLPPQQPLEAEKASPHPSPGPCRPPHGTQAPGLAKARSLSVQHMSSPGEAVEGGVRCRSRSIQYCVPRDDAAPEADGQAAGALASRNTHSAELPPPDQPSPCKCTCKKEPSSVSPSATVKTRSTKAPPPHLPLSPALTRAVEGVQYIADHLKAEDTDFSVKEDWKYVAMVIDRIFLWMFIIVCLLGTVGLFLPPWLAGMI
Chain of Voltage-gated inwardly rectifying potassium channel KCNH2 (Q12809 whole entry): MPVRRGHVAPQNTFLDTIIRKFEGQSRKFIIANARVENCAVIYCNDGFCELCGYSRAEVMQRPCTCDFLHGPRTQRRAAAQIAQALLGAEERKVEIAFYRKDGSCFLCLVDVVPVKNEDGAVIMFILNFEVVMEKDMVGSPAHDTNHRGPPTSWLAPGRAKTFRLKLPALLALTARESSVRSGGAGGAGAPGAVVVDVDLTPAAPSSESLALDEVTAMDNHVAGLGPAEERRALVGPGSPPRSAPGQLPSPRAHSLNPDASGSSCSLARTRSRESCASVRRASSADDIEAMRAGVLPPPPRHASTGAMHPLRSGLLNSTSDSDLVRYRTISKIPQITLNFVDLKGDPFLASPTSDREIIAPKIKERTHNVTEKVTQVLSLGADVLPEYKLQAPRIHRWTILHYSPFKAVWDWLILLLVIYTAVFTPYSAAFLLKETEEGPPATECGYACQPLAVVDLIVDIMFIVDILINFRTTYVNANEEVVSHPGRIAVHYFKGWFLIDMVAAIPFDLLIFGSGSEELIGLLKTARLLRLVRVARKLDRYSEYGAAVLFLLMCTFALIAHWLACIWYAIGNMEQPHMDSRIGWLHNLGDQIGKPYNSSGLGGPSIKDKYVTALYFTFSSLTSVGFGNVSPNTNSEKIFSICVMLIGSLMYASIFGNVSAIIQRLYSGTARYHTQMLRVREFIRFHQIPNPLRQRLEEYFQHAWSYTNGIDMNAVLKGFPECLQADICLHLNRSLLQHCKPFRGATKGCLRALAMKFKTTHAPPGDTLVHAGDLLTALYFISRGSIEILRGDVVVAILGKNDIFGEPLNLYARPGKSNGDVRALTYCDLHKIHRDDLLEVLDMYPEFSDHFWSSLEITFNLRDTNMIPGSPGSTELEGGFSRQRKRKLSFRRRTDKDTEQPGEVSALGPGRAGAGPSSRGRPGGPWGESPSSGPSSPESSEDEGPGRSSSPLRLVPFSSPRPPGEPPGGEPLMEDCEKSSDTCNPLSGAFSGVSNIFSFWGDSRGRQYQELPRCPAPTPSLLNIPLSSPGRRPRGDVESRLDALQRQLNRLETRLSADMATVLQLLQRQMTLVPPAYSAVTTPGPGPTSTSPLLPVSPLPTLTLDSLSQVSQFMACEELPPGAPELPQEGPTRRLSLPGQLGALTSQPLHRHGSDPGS
Chain of Vasopressin V1a receptor (P37288 whole entry): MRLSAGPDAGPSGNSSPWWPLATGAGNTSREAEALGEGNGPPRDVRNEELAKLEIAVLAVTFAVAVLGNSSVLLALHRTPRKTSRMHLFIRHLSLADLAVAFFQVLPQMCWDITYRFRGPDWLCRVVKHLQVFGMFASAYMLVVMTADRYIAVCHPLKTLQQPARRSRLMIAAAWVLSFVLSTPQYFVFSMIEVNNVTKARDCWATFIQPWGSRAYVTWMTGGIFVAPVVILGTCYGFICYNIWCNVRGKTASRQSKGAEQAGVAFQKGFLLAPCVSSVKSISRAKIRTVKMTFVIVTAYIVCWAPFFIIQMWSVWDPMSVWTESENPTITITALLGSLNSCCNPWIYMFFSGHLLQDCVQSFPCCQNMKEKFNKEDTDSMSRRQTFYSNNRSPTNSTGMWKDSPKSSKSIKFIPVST

Row | Compound | AC50 (Adenosine receptor A1) | AC50 [1] | AC50 [2] | AC50 [3] | AC50 [4] | AC50 [5] | AC50 [6] | AC50 (Vasopressin V1a receptor)
1 | Clc1ccc(C(c2ccccc2Cl)C(Cl)Cl)cc1 (stereo not drawn) [MITOTANE] | > 10 µM | > 10 µM | > 10 µM | > 10 µM | > 10 µM | > 30 µM | > 10 µM | 
2 | CCCN1C[C@H](CSC)C[C@@H]2c3cccc4[nH]cc(c34)C[C@H]21 [PERGOLIDE] | > 30 µM | 1.04 µM | > 30 µM | > 30 µM |  | 0.22 µM | > 30 µM | > 30 µM
3 | CCOC(=O)[C@H](CCc1ccccc1)N[C@@H](C)C(=O)N1[C@H](C(=O)O)C[C@@H]2CCC[C@@H]21 | > 30 µM | > 10 µM | > 30 µM | > 10 µM | > 10 µM | > 30 µM | > 30 µM | > 10 µM
4 | CN(C)CCC(c1ccc(Cl)cc1)c1ccccn1 (stereo not drawn) [CHLORPHENIRAMINE] | > 30 µM | > 10 µM | > 30 µM | > 10 µM | > 10 µM |  | > 30 µM | > 10 µM
5 | C[C@@H](O)[C@H]1C(=O)N2C(C(=O)O)=C(S[C@@H]3CN[C@H](C(=O)N(C)C)C3)[C@H](C)[C@H]12 [MEROPENEM] | > 300 µM | > 300 µM | > 300 µM | > 300 µM | > 300 µM | > 30 µM | > 10 µM | > 300 µM
6 | CC1=C(C(=O)O)N2C(=O)[C@@H](NC(=O)[C@H](N)c3ccccc3)[C@H]2SC1 [CEPHALEXIN ANHYDROUS] | > 30 µM | > 10 µM | > 30 µM | > 10 µM | > 30 µM |  | > 30 µM | > 10 µM
7 | CN(C)/N=N/c1[nH]cnc1C(N)=O [DACARBAZINE] | > 10 µM | > 10 µM | > 10 µM | > 10 µM | > 10 µM | > 30 µM | > 10 µM | 
8 | c1ccc([C@H]2CN3CCSC3=N2)cc1 [LEVAMISOLE] | > 30 µM | > 30 µM | > 30 µM | > 30 µM | > 30 µM | 18.8 µM |  | > 30 µM
9 | N[C@@H]1[C@H]2CN(c3nc4c(cc3F)c(=O)c(C(=O)O)cn4-c3ccc(F)cc3F)C[C@@H]12 [TROVAFLOXACIN] | > 30 µM | > 30 µM | > 30 µM | > 30 µM | > 30 µM | > 30 µM |  | > 30 µM
10 | O=P1(NCCCl)OCCCN1CCCl (stereo not drawn) [IFOSFAMIDE] | > 30 µM | > 30 µM | > 30 µM | > 30 µM | > 30 µM | > 30 µM | > 30 µM | 
11 | C[C@]12CCC(=O)C=C1CC[C@@H]1[C@@H]2[C@@H](O)C[C@@]2(C)[C@H]1CC[C@]2(O)C(=O)CO [HYDROCORTISONE] | > 30 µM | > 10 µM | > 30 µM | > 10 µM | > 10 µM | > 30 µM | > 30 µM | > 10 µM
12 | C1CCC(C(CC2CCCCN2)C2CCCCC2)CC1 (stereo not drawn) [PERHEXILINE] | > 30 µM | 16.5 µM | > 30 µM | > 3 µM | 9.1 µM |  |  | > 30 µM
13 | Cc1ccc(-c2cc(C(F)(F)F)nn2-c2ccc(S(N)(=O)=O)cc2)cc1 [CELECOXIB] | > 10 µM | > 10 µM | > 10 µM | > 10 µM | > 10 µM |  | > 10 µM | > 30 µM
14 | CCCSc1ccc2nc(NC(=O)OC)[nH]c2c1 [ALBENDAZOLE] | > 10 µM | > 10 µM | > 10 µM | > 10 µM | > 10 µM | 10.4 µM | > 10 µM | 
15 | CCC(C)n1ncn(-c2ccc(N3CCN(c4ccc(OCC5COC(Cn6cncn6)(c6ccc(Cl)cc6Cl)O5)cc4)CC3)cc2)c1=O (stereo not drawn) [ITRACONAZOLE] | > 30 µM | > 30 µM | > 30 µM | > 30 µM | > 30 µM | > 30 µM | > 30 µM | > 30 µM

From ChEMBL document CHEMBL5291721, “A preclinical secondary pharmacology resource illuminates target-adverse drug reaction associations of marketed drugs” (Nat Commun, 2023)
